Assay results as given in paper PMC13128454, “Mutant p53 protein accumulation is selectively targetable by proximity-inducing drugs” (Nature Chemical Biology, 2025).
Several values for one entry are separate records, joined by “and”; a condition that tells them apart may be missing. Equal values may be shown once. Read-outs that look alike come from different tables or passages of the source.

Key:
[1] = tested on: Calu-1 cells stably expressing Halo–p53-R273H (FL)–mCherry versus parental Calu-1 cells; assay: flow-cytometry growth competition; format: cell-based; conditions: sheet S2E
Experimental: (§1) Cells with and without a fluorescent marker (for example, Halo–p53–mCherry) were mixed and the resulting solution was plated in six-well plates or 10-cm dishes at low density; compound was added at varying concentrations. After reaching confluence, cells were passaged and retreated with compound if needed. Otherwise, cells were trypsinized, washed and resuspended in complete growth medium in 96-well plates or tubes for flow cytometry. Untreated cell mixtures were used to establish gates separating the fluorophore^+/− populations. Analysis was conducted on a CytoFLEX LX flow cytometer.

[2] = tested on: Halo–p53-R273H (FL)–mCherry 293T cells versus parental 293T cells; assay: flow-cytometry growth competition; format: cell-based
Experimental: as §1

[3] = tested on: Halo–p53-Y220C ΔTAD–mCherry 293T cells versus parental 293T cells; assay: flow-cytometry growth competition; format: cell-based; conditions: for mCherry_percent: 8 days, untreated 39.76; for activity / difference in cell survival in competition: 8-day competition; for normalized_mCherry_percentage: Y220C, day 8, normalized to DMSO; for Viability competition, AVERAGE: average of 3 replicates; for IC50 / Emax: viability competition (sheet 5B); for Emax: lowest average of sheet 5A; for EC50: growth competition analyzed on day 10, n = 3, read-out: Competition EC50
Experimental: as §1

[4] = biological target: T1, p53-Y220C–PLK1 ternary complex (Homo sapiens, UniProt P04637+P53350, M133L/N239Y/N268D/V203A/Y220C); assay: NanoBiT ternary complex assay in cotransfected 293T cells; format: cell-based
T1 construct: NLS–LgBiT–p53-Y220C (DBD) and mEGFP–PLK1–SmBiT; expressed in transfected cells; host or cells: 293T cells, transient cotransfection
Excerpt: After 1 day, the cells were passaged into 384-well plates and treated with varying concentrations of compound.

[5] = tested on: cancer cell lines across DepMap; design: method as in DepMap; conditions: antiproliferative; PRISM OncRef; ref DepMap; read-out: median IC50 across DepMap; cited from earlier work
WEE1 = tested on: WEE1; design: method as in PMID 19887545; conditions: cell-free; read-out: IC50 for cell-free WEE1 inhibition; cited from earlier work
MFE296 cells = assay: CellTiter-Glo cell viability; format: cell-based; design: AUC_rezatapopt: unit not given beside the values
Experimental: (§2) Cells were plated in 384-well plates (typically 1,500 cells per well) with varying concentrations of compounds, with a total volume of 50 μl per well. CTG reagent was added (25 μl) to the solutions, mixed and read out using an EnVision 2105 multimode plate reader.

DU145 cells = assay: CellTiter-Glo cell viability; format: cell-based; design: AUC_rezatapopt: unit not given beside the values
Experimental: as §2

NUGC-3 cells = assay: CellTiter-Glo cell viability; format: cell-based; design: AUC_rezatapopt: unit not given beside the values; conditions: NUGC3
Experimental: as §2

LNCaP cells = assay: CellTiter-Glo cell viability; format: cell-based; design: AUC_rezatapopt: unit not given beside the values; conditions: LNCaP
Experimental: as §2

MCF7 cells = assay: CellTiter-Glo cell viability; format: cell-based; design: AUC_rezatapopt: unit not given beside the values
Experimental: as §2

Huh7 cells = assay: CellTiter-Glo cell viability; format: cell-based; design: AUC_rezatapopt: unit not given beside the values
Experimental: as §2

HepG2 cells = assay: CellTiter-Glo cell viability; format: cell-based; design: AUC_rezatapopt: unit not given beside the values
Experimental: as §2

MFE319 cells = assay: CellTiter-Glo cell viability; format: cell-based; design: p5301_AUC_to_10uM / AUC_rezatapopt: scale not given here; conditions: MFE319
Experimental: as §2

p53-Y220C = conditions: cited from earlier work
[6] = 24 h, n = 4, read-out: NanoBiT EC50

## CC[C@@H]1C(=O)N(C)c2cnc(Nc3ccc(C(=O)NCCOCCOCCC(=O)NCCOCCOCCCCCCCl)cc3OC)nc2N1C1CCCC1 [HLDA-131]
[1]; 1 nM
  mCherry_percent: 83.77%
[1]; 10 nM
  mCherry_percent: 55.02%
[1]; 100 nM
  mCherry_percent: 4.8%
[1]; 1 uM
  mCherry_percent: 3.52%

## C=CCn1c(=O)c2cnc(Nc3ccc(N4CCN(C(=O)CCOCCOCCC(=O)NCCOCCOCCCCCCCl)CC4)cc3)nc2n1-c1cccc(C(C)(C)O)n1 [Halo-PEG2-adavosertib]
[2]; Homo sapiens, HEK-293T, Halo–p53-R273H (FL)–mCherry 293T cells as printed, Extended Data Fig. 2f
  EC50: 41 nM
[2]; doses between 100 nM and 1 μM, cells as printed
  selective inhibition of proliferation in competition assay: selectively inhibited the proliferation
[3]; 100 nM
  mCherry_percent: 10.55%
[3]; 1 uM
  mCherry_percent: 4.24%
[3]; 10 uM
  mCherry_percent: 26.57%

## C=CC(=O)n1c2ccccc2c2cc(C(=O)NCc3cn(CCOCCOCCOCCOCCNC(=O)c4ccc(Nc5ncc6c(n5)N(C5CCCC5)[C@H](CC)C(=O)N6C)c(OC)c4)nn3)ccc21 [KG5-PEG4-BI2536]
[3]
  activity / difference in cell survival in competition: did not observe any difference in cell survival
[3]; 1 nM
  normalized_mCherry_percentage: 98.99%
[3]; 10 nM
  normalized_mCherry_percentage: 99.96%
[3]; 100 nM
  normalized_mCherry_percentage: 100.2%
[3]; 1 uM
  normalized_mCherry_percentage: 99.83%

## CC[C@@H]1C(=O)N(C)c2cnc(Nc3ccc(C(=O)NCCOCCOCCOCCOCCC(=O)N4CCC(Nc5cccc6c5cc(C#CCNc5ccc(S(C)(=O)=O)cc5OC)n6CC(F)(F)F)CC4)cc3OC)nc2N1C1CCCC1 [PEG4 (p53-01)]
[3]; Concentration (nM) 10
  Viability competition, Replicate 1-3: 0.6959 and 0.6663 and 0.6621
  Viability competition, AVERAGE: 0.6748
[3]; Concentration (nM) 100
  Viability competition, Replicate 1-3: 0.7132 and 0.7004 and 0.6708
  Viability competition, AVERAGE: 0.6948
[3]; Concentration (nM) 500
  Viability competition, Replicate 1-3: 0.6679 and 0.6445 and 0.6361
  Viability competition, AVERAGE: 0.6495
[3]; Concentration (nM) 1000
  Viability competition, Replicate 1-3: 0.309 and 0.295 and 0.2813
  Viability competition, AVERAGE: 0.2951
[3]; Concentration (nM) 2000
  Viability competition, Replicate 1-3: 0.1194 and 0.1119 and 0.1123
  Viability competition, AVERAGE: 0.1145
[3]; Concentration (nM) 5000
  Viability competition, Replicate 1-3: 0.1698 and 0.1509 and 0.1508
  Viability competition, AVERAGE: 0.1572
[3]
  IC50: 851 nM
  Emax: 0.1145

## CC[C@@H]1C(=O)N(C)c2cnc(Nc3ccc(C(=O)NCCC(=O)N4CCC(Nc5cccc6c5cc(C#CCNc5ccc(S(C)(=O)=O)cc5OC)n6CC(F)(F)F)CC4)cc3OC)nc2N1C1CCCC1 [PMV6-C3-BI2536]
[3]; Concentration (nM) 10
  Viability competition, AVERAGE: 0.6993
[3]; Concentration (nM) 10, listed as C3
  Viability competition, Replicate 1-3: 0.706 and 0.7024 and 0.6895
[3]; Concentration (nM) 100
  Viability competition, AVERAGE: 0.1737
[3]; Concentration (nM) 100, listed as C3
  Viability competition, Replicate 1-3: 0.1753 and 0.1712 and 0.1746
[3]; Concentration (nM) 500
  Viability competition, AVERAGE: 0.1322
[3]; Concentration (nM) 500, listed as C3
  Viability competition, Replicate 1-3: 0.1474 and 0.1221 and 0.127
[3]; Concentration (nM) 1000
  Viability competition, AVERAGE: 0.1085
[3]; Concentration (nM) 1000, listed as C3
  Viability competition, Replicate 1-3: 0.1425 and 0.0972 and 0.0859
[3]; Concentration (nM) 2000
  Viability competition, AVERAGE: 0.0794
[3]; Concentration (nM) 2000, listed as C3
  Viability competition, Replicate 1-3: 0.0894 and 0.0623 and 0.0865
[3]; Concentration (nM) 5000
  Viability competition, AVERAGE: 0.1321
[3]; Concentration (nM) 5000, listed as C3
  Viability competition, Replicate 1-3: 0.1277 and 0.1154 and 0.1531
[3]; day 10
  potency versus p53-01 in the competition assay: over 1.5 orders of magnitude
[3]
  EC50: 25 nM
  IC50: 25.3 nM
  Emax: 0.0794
[4]; [6]
  EC50: 410 nM
[4]; Concentration 19.5312
  NanoBiT mean_norm: 1.06
[4]; Concentration 39.0625
  NanoBiT mean_norm: 1.117
[4]; Concentration 78.125
  NanoBiT mean_norm: 1.1621
[4]; Concentration 156.25
  NanoBiT mean_norm: 1.171
[4]; Concentration 312.5
  NanoBiT mean_norm: 1.264
[4]; Concentration 625
  NanoBiT mean_norm: 1.76
[4]; Concentration 1250
  NanoBiT mean_norm: 1.765
[4]; Concentration 2500
  NanoBiT mean_norm: 1.801
[4]; Concentration 5000
  NanoBiT mean_norm: 1.856
[4]; Concentration 10000
  NanoBiT mean_norm: 1.853
[4]; sheet 5C
  Max_effect: 1.856
[4]; sheet 5C, read-out: EC50
  EC50: 406 nM

## C=CCn1c(=O)c2cnc(Nc3ccc(N4CCN(C)CC4)cc3)nc2n1-c1cccc(C(C)(C)O)n1 [adavosertib]
[5]
  IC50: 348 nM
WEE1
  IC50: 5.2 nM

## CNC(=O)c1ccc(NCC#Cc2cc3c(N[C@@H]4CCN(C)C[C@@H]4F)cccc3n2CC(F)(F)F)c(OC)c1 [rezatapopt]
MFE296 cells
  AUC_rezatapopt: 0.5683
DU145 cells
  AUC_rezatapopt: 1
NUGC-3 cells
  AUC_rezatapopt: 0.5908
LNCaP cells
  AUC_rezatapopt: 0.9713
MCF7 cells
  AUC_rezatapopt: 0.9331
Huh7 cells
  AUC_rezatapopt: 0.6525
HepG2 cells
  AUC_rezatapopt: 0.9433
MFE319 cells
  AUC_rezatapopt: 0.8525
p53-Y220C
  Kd: ~2.5 nM

## O=C(/C=C\n1cnc(-c2cc(C(F)(F)F)cc(C(F)(F)F)c2)n1)NNc1cnccn1 [selinexor]
[3]
  activity / difference in cell survival in competition: did not observe any activity
[3]; 1 nM
  normalized_mCherry_percentage: 98.56%
[3]; 10 nM
  normalized_mCherry_percentage: 98.63%
[3]; 100 nM
  normalized_mCherry_percentage: 103.2%
[3]; 1 uM
  normalized_mCherry_percentage: 99.86%

## AP1867-C8-BI2536
[3]
  activity / difference in cell survival in competition: did not observe any activity
[3]; 1 nM
  normalized_mCherry_percentage: 97.6%
[3]; 10 nM
  normalized_mCherry_percentage: 98.26%
[3]; 100 nM
  normalized_mCherry_percentage: 98.72%
[3]; 1 uM
  normalized_mCherry_percentage: 93.37%

## PEG6
[3]; Concentration (nM) 10
  Viability competition, Replicate 1-3: 0.5239 and 0.6471 and 0.659
  Viability competition, AVERAGE: 0.61
[3]; Concentration (nM) 100
  Viability competition, Replicate 1-3: 0.5384 and 0.6799 and 0.6767
  Viability competition, AVERAGE: 0.6317
[3]; Concentration (nM) 500
  Viability competition, Replicate 1-3: 0.4819 and 0.6302 and 0.6328
  Viability competition, AVERAGE: 0.5816
[3]; Concentration (nM) 1000
  Viability competition, Replicate 1-3: 0.2653 and 0.295 and 0.3011
  Viability competition, AVERAGE: 0.2871
[3]; Concentration (nM) 2000
  Viability competition, Replicate 1-3: 0.064 and 0.0676 and 0.0785
  Viability competition, AVERAGE: 0.07003
[3]; Concentration (nM) 5000
  Viability competition, Replicate 1-3: 0.1113 and 0.1194 and 0.102
  Viability competition, AVERAGE: 0.1109
[3]
  EC50: 900 nM
  IC50: 899 nM
  Emax: 0.07003
[4]; [6]
  EC50: 3680 nM
[4]; Concentration 19.5312
  NanoBiT mean_norm: 1.005
[4]; Concentration 39.0625
  NanoBiT mean_norm: 0.9853
[4]; Concentration 78.125
  NanoBiT mean_norm: 1.029
[4]; Concentration 156.25
  NanoBiT mean_norm: 1.026
[4]; Concentration 312.5
  NanoBiT mean_norm: 1.029
[4]; Concentration 625
  NanoBiT mean_norm: 1.011
[4]; Concentration 1250
  NanoBiT mean_norm: 1.186
[4]; Concentration 2500
  NanoBiT mean_norm: 1.25
[4]; Concentration 5000
  NanoBiT mean_norm: 1.542
[4]; Concentration 10000
  NanoBiT mean_norm: 1.6853
[4]; sheet 5C
  Max_effect: 1.6853
[4]; sheet 5C, read-out: EC50
  EC50: 3680 nM
